For test [1], the target named is Aurora kinase B (Homo sapiens) (UniProt Q96GD4). Put plainly: Inhibition of T7 bacteriophage fused human AURKB at 10 uM by KINOMEscan analysis relative to control.
In test [2] the target is Tyrosine-protein kinase receptor UFO (Homo sapiens) (UniProt P30530). Description: Inhibition of T7 bacteriophage fused human AXL at 10 uM by KINOMEscan analysis relative to control.
Test [3] concerns the target Bone morphogenetic protein receptor type-1B (Homo sapiens) (UniProt O00238). Put plainly: Inhibition of T7 bacteriophage fused human BMPR1B at 10 uM by KINOMEscan analysis relative to control.
Test [4] deals with Serine/threonine-protein kinase BRSK1 (Homo sapiens) (UniProt Q8TDC3). Description: Inhibition of T7 bacteriophage fused human BRSK1 at 10 uM by KINOMEscan analysis relative to control.
The target of test [5] is Tyrosine-protein kinase BTK (Homo sapiens) (UniProt Q06187). Put plainly: Inhibition of T7 bacteriophage fused human BTK at 10 uM by KINOMEscan analysis relative to control.
Test [6] has as its target Cyclin-dependent kinase 11B (Homo sapiens) (UniProt P21127). Put plainly: Inhibition of T7 bacteriophage fused human CDK11 at 10 uM by KINOMEscan analysis relative to control.
The target in test [7] is Cyclin-dependent kinase 9 (Homo sapiens) (UniProt P50750). Put plainly: Inhibition of T7 bacteriophage fused human CDK9 at 10 uM by KINOMEscan analysis relative to control.
Cyclin-dependent kinase 9 (Homo sapiens), sequence (P50750 whole entry, the tested form may be a part, canonical isoform): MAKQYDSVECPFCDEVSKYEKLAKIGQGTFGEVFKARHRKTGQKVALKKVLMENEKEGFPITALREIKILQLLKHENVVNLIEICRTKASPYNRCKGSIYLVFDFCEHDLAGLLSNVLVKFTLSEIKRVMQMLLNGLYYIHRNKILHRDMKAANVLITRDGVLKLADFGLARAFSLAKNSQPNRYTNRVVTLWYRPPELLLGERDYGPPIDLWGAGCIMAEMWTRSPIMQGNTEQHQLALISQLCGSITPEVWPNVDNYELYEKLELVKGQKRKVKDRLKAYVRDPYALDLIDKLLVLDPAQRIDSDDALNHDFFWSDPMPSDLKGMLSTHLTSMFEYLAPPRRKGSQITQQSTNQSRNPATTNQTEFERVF
In test [8] the target is Casein kinase I isoform alpha-like (Homo sapiens) (UniProt Q8N752). Put plainly: Inhibition of T7 bacteriophage fused human CSNK1A1L at 10 uM by KINOMEscan analysis relative to control.
Casein kinase I isoform alpha-like (Homo sapiens), sequence (Q8N752 whole entry, the tested form may be a part, canonical isoform): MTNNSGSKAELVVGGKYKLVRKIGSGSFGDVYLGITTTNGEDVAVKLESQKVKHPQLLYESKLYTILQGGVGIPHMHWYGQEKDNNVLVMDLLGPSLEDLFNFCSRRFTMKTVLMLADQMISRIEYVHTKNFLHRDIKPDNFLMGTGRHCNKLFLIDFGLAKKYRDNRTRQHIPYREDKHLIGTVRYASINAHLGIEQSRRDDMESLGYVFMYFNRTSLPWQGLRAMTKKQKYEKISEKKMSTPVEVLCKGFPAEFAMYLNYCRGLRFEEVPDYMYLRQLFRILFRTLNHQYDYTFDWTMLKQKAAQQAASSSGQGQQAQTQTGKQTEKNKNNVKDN
In test [9] the test system is Epidermal growth factor receptor (Homo sapiens), P00533 [G719C]. Put plainly: Inhibition of T7 bacteriophage fused human EGFR G719C mutant at 10 uM by KINOMEscan analysis relative to control.
The target in test [10] is Receptor tyrosine-protein kinase erbB-2 (Homo sapiens) (UniProt P04626). Put plainly: Inhibition of T7 bacteriophage fused human ERBB2 at 10 uM by KINOMEscan analysis relative to control.
The target of test [11] is Mitogen-activated protein kinase kinase kinase 11 (Homo sapiens) (UniProt Q16584). Description: Inhibition of T7 bacteriophage fused human MLK3 at 10 uM by KINOMEscan analysis relative to control.
Mitogen-activated protein kinase kinase kinase 11 (Homo sapiens), sequence (Q16584 whole entry, looked up, the tested form may be a part): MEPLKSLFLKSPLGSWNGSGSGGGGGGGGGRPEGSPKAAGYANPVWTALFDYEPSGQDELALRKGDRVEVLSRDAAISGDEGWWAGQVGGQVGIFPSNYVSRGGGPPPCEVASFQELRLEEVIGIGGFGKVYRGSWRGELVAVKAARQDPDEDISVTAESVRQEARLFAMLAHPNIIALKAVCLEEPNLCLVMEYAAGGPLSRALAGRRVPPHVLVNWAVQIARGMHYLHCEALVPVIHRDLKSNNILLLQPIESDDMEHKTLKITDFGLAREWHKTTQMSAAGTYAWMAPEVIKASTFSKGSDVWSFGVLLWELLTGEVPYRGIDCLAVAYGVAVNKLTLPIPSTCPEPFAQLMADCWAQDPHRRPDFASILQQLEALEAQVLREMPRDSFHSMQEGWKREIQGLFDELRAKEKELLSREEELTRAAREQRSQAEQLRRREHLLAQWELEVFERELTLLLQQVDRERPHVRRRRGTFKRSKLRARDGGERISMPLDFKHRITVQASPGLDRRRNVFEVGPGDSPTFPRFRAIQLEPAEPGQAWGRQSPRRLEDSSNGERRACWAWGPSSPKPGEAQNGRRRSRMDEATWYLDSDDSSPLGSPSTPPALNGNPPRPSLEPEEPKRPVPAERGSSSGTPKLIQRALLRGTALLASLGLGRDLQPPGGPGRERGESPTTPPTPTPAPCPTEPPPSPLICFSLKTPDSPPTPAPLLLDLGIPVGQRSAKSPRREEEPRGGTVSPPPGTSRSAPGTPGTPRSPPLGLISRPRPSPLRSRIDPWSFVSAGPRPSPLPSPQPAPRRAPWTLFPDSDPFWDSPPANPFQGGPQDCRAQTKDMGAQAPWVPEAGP
Test [12] deals with Serine/threonine-protein kinase Nek11 (Homo sapiens) (UniProt Q8NG66). Description: Inhibition of T7 bacteriophage fused human NEK11 at 10 uM by KINOMEscan analysis relative to control.
Serine/threonine-protein kinase Nek11 (Homo sapiens), sequence (Q8NG66 whole entry, the tested form may be a part): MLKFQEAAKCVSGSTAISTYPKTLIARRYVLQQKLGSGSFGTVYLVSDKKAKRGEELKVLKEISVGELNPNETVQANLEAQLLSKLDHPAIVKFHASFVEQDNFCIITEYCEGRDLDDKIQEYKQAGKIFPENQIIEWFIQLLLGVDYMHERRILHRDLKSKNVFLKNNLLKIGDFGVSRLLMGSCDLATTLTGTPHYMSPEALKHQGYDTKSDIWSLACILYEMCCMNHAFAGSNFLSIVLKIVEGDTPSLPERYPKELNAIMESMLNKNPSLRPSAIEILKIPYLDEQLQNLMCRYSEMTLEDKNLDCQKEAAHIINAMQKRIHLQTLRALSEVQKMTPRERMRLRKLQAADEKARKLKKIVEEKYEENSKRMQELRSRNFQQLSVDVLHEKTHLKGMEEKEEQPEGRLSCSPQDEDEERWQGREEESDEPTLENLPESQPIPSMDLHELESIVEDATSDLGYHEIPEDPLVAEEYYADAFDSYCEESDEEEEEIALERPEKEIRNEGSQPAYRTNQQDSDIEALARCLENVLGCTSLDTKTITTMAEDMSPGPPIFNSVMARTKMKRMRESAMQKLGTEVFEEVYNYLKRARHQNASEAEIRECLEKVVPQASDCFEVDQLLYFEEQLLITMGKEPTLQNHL
Test [13] concerns the target Platelet-derived growth factor receptor beta (Homo sapiens) (UniProt P09619). Put plainly: Inhibition of T7 bacteriophage fused human PDGFRB at 10 uM by KINOMEscan analysis relative to control.
Test [14] has as its target Serine/threonine-protein kinase N1 (Homo sapiens) (UniProt Q16512). Put plainly: Inhibition of T7 bacteriophage fused human PKN1 at 10 uM by KINOMEscan analysis relative to control.
For test [15], the target named is Serine/threonine-protein kinase PLK4 (Homo sapiens) (UniProt O00444). Put plainly: Inhibition of T7 bacteriophage fused human PLK4 at 10 uM by KINOMEscan analysis relative to control.
For test [16], the target named is Serine/threonine-protein kinase D3 (Homo sapiens) (UniProt O94806). Put plainly: Inhibition of T7 bacteriophage fused human PRKD3 at 10 uM by KINOMEscan analysis relative to control.
Serine/threonine-protein kinase D3 (Homo sapiens), sequence (O94806 whole entry, the tested form may be a part): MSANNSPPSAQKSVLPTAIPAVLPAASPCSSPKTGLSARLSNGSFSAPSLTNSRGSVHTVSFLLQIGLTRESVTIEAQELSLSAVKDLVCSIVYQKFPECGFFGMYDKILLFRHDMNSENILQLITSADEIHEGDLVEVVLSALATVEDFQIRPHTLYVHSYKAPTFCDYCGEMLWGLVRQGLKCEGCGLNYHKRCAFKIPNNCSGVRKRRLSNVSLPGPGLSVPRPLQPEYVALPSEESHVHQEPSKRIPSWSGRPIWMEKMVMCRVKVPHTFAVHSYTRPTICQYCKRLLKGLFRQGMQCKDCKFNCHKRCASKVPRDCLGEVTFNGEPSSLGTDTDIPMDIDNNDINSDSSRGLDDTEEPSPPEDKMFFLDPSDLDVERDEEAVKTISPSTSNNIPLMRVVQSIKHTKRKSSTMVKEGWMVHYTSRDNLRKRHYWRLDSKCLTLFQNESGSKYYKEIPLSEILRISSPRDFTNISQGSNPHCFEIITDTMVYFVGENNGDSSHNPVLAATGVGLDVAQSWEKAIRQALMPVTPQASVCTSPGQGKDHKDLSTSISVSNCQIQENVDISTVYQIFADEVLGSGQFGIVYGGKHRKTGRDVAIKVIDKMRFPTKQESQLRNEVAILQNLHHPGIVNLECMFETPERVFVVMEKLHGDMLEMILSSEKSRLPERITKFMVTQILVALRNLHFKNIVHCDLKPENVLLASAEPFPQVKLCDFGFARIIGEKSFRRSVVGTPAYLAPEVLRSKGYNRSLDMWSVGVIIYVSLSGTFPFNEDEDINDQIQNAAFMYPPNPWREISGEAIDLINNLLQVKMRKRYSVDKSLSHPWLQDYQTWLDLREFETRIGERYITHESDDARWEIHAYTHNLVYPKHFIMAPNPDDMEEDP
Test [17] has as its target cGMP-dependent protein kinase 2 (Homo sapiens) (UniProt Q13237). Put plainly: Inhibition of T7 bacteriophage fused human PRKG2 at 10 uM by KINOMEscan analysis relative to control.
Test [18] has as its target Proto-oncogene tyrosine-protein kinase receptor Ret (Homo sapiens) (UniProt P07949). Description: Inhibition of T7 bacteriophage fused human RET at 10 uM by KINOMEscan analysis relative to control.
The target in test [19] is Ribosomal protein S6 kinase alpha-1 (Homo sapiens) (UniProt Q15418). Description: Inhibition of T7 bacteriophage fused human C-terminal RSK1 Kinase domain-2 at 10 uM by KINOMEscan analysis relative to control.
In test [20] the target is Serine/threonine-protein kinase PAK 1 (Homo sapiens) (UniProt Q13153). Put plainly: Inhibition of T7 bacteriophage fused human PAK1 at 10 uM by KINOMEscan analysis relative to control.
Test [21] deals with Serine/threonine-protein kinase NLK (Homo sapiens) (UniProt Q9UBE8). Put plainly: Inhibition of T7 bacteriophage fused human NLK at 10 uM by KINOMEscan analysis relative to control; values are per cent of control.
Test [22] concerns the target Dual specificity mitogen-activated protein kinase kinase 5 (Homo sapiens) (UniProt Q13163). Description: Inhibition of T7 bacteriophage fused human MEK5 at 10 uM by KINOMEscan analysis relative to control; values are per cent of control.
Test [23] deals with Serine/threonine-protein kinase LATS2 (Homo sapiens) (UniProt Q9NRM7). Description: Inhibition of T7 bacteriophage fused human LATS2 at 10 uM by KINOMEscan analysis relative to control; values are per cent of control.
Test [24] has as its target Serine/threonine-protein kinase MARK1 (Homo sapiens) (UniProt Q9P0L2). Description: Inhibition of T7 bacteriophage fused human MARK1 at 10 uM by KINOMEscan analysis relative to control; values are per cent of control.
Test [25] addresses MAP/microtubule affinity-regulating kinase 4 (Homo sapiens) (UniProt Q96L34). Put plainly: Inhibition of T7 bacteriophage fused human MARK4 at 10 uM by KINOMEscan analysis relative to control; values are per cent of control.
Test [26] addresses Myosin light chain kinase 2, skeletal/cardiac muscle (Homo sapiens) (UniProt Q9H1R3). Description: Inhibition of T7 bacteriophage fused human MYLK2 at 10 uM by KINOMEscan analysis relative to control; values are per cent of control.
The target of test [27] is Mitogen-activated protein kinase kinase kinase kinase 3 (Homo sapiens) (UniProt Q8IVH8). Put plainly: Inhibition of T7 bacteriophage fused human MAP4K3 at 10 uM by KINOMEscan analysis relative to control; values are per cent of control.
Test [28] deals with Mitogen-activated protein kinase kinase kinase 15 (Homo sapiens) (UniProt Q6ZN16). Description: Inhibition of T7 bacteriophage fused human MAP3K15 at 10 uM by KINOMEscan analysis relative to control; values are per cent of control.
Mitogen-activated protein kinase kinase kinase 15 (Homo sapiens), sequence (Q6ZN16 whole entry, the tested form may be a part): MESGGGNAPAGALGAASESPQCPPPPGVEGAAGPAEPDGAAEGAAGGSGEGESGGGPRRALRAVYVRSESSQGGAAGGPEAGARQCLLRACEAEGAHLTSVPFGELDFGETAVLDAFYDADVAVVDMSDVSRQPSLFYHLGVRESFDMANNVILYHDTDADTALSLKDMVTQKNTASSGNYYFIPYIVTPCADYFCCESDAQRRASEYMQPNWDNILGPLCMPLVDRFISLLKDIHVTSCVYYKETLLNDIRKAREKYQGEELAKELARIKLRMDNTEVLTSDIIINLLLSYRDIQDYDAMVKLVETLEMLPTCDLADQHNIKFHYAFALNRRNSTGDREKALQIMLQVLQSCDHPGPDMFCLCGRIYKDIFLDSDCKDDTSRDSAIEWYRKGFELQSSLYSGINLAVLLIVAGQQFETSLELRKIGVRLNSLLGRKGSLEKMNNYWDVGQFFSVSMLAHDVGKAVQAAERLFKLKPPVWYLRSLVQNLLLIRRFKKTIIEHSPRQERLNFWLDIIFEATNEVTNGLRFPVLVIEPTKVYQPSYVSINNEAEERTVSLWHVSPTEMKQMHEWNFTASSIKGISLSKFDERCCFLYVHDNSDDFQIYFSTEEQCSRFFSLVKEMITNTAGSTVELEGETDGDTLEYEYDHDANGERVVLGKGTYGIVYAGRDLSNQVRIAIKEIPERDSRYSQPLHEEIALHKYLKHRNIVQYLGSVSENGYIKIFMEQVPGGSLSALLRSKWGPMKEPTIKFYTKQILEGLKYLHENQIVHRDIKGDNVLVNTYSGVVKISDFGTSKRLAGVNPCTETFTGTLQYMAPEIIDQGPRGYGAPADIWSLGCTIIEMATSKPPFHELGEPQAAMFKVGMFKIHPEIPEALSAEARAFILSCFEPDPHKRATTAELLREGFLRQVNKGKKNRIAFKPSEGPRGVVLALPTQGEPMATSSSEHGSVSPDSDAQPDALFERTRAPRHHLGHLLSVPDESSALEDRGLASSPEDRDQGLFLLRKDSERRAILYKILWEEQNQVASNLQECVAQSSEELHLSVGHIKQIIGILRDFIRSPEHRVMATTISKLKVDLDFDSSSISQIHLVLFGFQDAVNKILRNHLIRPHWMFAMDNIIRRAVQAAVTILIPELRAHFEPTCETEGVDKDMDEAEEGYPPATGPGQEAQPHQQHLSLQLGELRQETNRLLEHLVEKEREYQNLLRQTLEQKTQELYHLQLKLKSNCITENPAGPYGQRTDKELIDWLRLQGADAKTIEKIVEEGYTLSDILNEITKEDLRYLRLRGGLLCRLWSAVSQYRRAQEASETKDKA
Test [29] relates to Receptor-type tyrosine-protein kinase FLT3 (Homo sapiens), P36888 [N841I]. Put plainly: Inhibition of T7 bacteriophage fused human FLT3 N841I mutant at 10 uM by KINOMEscan analysis relative to control; values are per cent of control.
The target in test [30] is Serine/threonine-protein kinase TAO2 (Homo sapiens) (UniProt Q9UL54). Description: Inhibition of TAO2 Lys2 labeling site in human PC-3 cell lysate at 10 uM by KiNativ profiling analysis relative to control. In kind it is subcellular.

The inhibition is the relative decrease from the control value, in per cent. Low readings indicate a response near the control, high ones a response far below the control.

Bone morphogenetic protein receptor type-1B (Homo sapiens), sequence (O00238 whole entry, the tested form may be a part): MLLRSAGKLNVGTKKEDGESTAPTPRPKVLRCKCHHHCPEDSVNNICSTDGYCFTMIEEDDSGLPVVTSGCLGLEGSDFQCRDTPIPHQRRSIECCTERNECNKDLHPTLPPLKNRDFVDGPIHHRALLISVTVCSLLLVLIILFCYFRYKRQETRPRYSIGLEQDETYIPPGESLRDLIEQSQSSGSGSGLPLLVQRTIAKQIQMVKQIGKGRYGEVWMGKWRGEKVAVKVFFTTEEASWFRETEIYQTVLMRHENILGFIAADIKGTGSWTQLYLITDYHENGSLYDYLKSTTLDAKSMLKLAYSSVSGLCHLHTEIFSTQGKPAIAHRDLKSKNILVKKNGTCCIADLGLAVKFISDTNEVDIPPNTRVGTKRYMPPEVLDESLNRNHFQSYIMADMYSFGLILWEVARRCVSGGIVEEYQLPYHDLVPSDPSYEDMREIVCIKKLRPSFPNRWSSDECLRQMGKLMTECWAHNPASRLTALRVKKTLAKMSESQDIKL

As to `COc1cc(N2CCC(N3CCN(C)CC3)CC2)ccc1Nc1ncc2c(n1)N(C)c1ccccc1C(=O)N2C`, the inhibition in test [1] is 38%; in [2], 100%; in [3] it was 76%; in test [4] it was 81%; in test [5], 100%; in test [6], 100%. Further, the inhibition in test [7], in [8], in test [9], in [10], in [11] and in [12] was 100% each time. For the same compound, the inhibition in test [13] turned out to be 100%; in test [14] it was 100%; in test [15] it was 0%; in test [16], 42%; in test [17] it was 74%; in [18], 100%. Besides, the inhibition worked out at 10% in [19] and 95% in test [20]. Besides, the residual activity in test [21] amounted to 50%; in test [22] it was 85%; in [23], 95%; in test [24] it was 87%; in test [25], 78%; in test [26] it was 98%. The residual activity worked out at 71% in test [27], 69% in test [28] and 73% in test [29].
`COc1cc(C(=O)N2CCC(N3CCN(C)CC3)CC2)ccc1Nc1ncc2c(n1)N(C1CCCC1)c1ccccc1C(=O)N2C` registered an inhibition in test [30] of 0.3%.

The values above are taken from ChEMBL document CHEMBL5678810.
